PubChem BioAssay (NCI)
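Step 1: Grow cells in 96-well plates. Step 2: Expose to compound for 48 hours at 5 concentrations. Step 3: Interpolate endpoints linearly; if unreached, use highest concentration. TGI marks complete inhibition of growth.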

Tests used:
Assay in all cases: DTP human tumour cell line panel, 48 h
OVCAR-8 ovarian = tested on: OVCAR-8 ovarian
MALME-3M melanoma = tested on: MALME-3M melanoma
NCI-H23 lung = tested on: NCI-H23 lung
A498 renal = tested on: A498 renal
UACC-62 melanoma = tested on: UACC-62 melanoma
SR leukemia = tested on: SR leukemia
NCI-H226 lung = tested on: NCI-H226 lung
HCT-15 colon = tested on: HCT-15 colon
SK-MEL-28 melanoma = tested on: SK-MEL-28 melanoma
HCC-2998 colon = tested on: HCC-2998 colon
IGROV1 ovarian = tested on: IGROV1 ovarian
SK-MEL-5 melanoma = tested on: SK-MEL-5 melanoma
EKVX NSCLC = tested on: EKVX NSCLC
M14 melanoma = tested on: M14 melanoma
PC-3 prostate = tested on: PC-3 prostate
RXF 393 renal = tested on: RXF 393 renal
HS 578T breast = tested on: HS 578T breast
SNB-19 CNS = tested on: SNB-19 CNS
NCI/ADR-RES ovarian = tested on: NCI/ADR-RES ovarian
HCT-116 colon = tested on: HCT-116 colon
OVCAR-3 ovarian = tested on: OVCAR-3 ovarian
U251 CNS = tested on: U251 CNS
MOLT-4 leukemia = tested on: MOLT-4 leukemia
LOX IMVI melanoma = tested on: LOX IMVI melanoma
K-562 leukemia = tested on: K-562 leukemia
TK-10 renal = tested on: TK-10 renal
MCF7 breast = tested on: MCF7 breast
KM12 colon = tested on: KM12 colon
HT29 colon = tested on: HT29 colon
SW-620 colon = tested on: SW-620 colon
SF-539 CNS = tested on: SF-539 CNS
SF-295 CNS = tested on: SF-295 CNS
CAKI-1 renal = tested on: CAKI-1 renal
786-0 renal = tested on: 786-0 renal
HOP-62 NSCLC = tested on: HOP-62 NSCLC
MDA-MB-435 = tested on: MDA-MB-435
A549 NSCLC = tested on: A549 NSCLC
UO-31 renal = tested on: UO-31 renal
ACHN renal = tested on: ACHN renal
COLO 205 colon = tested on: COLO 205 colon
SN12C renal = tested on: SN12C renal
HOP-92 NSCLC = tested on: HOP-92 NSCLC
T-47D breast = tested on: T-47D breast
NCI-H522 lung = tested on: NCI-H522 lung
DU-145 prostate = tested on: DU-145 prostate
MDA-N = tested on: MDA-N
OVCAR-4 ovarian = tested on: OVCAR-4 ovarian
MDA-MB-231 breast = tested on: MDA-MB-231 breast
NCI-H460 lung = tested on: NCI-H460 lung
UACC-257 melanoma = tested on: UACC-257 melanoma
SK-OV-3 ovarian = tested on: SK-OV-3 ovarian
CCRF-CEM leukemia = tested on: CCRF-CEM leukemia
OVCAR-5 ovarian = tested on: OVCAR-5 ovarian
BT-549 breast = tested on: BT-549 breast
RPMI-8226 leukemia = tested on: RPMI-8226 leukemia
SK-MEL-2 melanoma = tested on: SK-MEL-2 melanoma
SNB-75 CNS = tested on: SNB-75 CNS
HL-60(TB) leukemia = tested on: HL-60(TB) leukemia
SF-268 CNS = tested on: SF-268 CNS

CCOP(=O)(OCC)C(=C1C=C(C(C)(C)C)C(=O)C(C(C)(C)C)=C1)P(=O)(OCC)OCC
TGI (OVCAR-8 ovarian): > 10 µM
TGI (MALME-3M melanoma): 3.38 µM
TGI (NCI-H23 lung): > 10 µM
TGI (A498 renal): > 10 µM
TGI (UACC-62 melanoma): > 10 µM
TGI (SR leukemia): > 10 µM
TGI (NCI-H226 lung): > 10 µM
TGI (HCT-15 colon): > 6.87 µM
TGI (SK-MEL-28 melanoma): > 10 µM
TGI (HCC-2998 colon): > 10 µM
TGI (IGROV1 ovarian): > 10 µM
TGI (SK-MEL-5 melanoma): > 10 µM
TGI (EKVX NSCLC): > 10 µM
TGI (M14 melanoma): 4.11 µM
TGI (PC-3 prostate): > 10 µM
TGI (RXF 393 renal): > 10 µM
TGI (HS 578T breast): > 10 µM
TGI (SNB-19 CNS): > 10 µM
TGI (NCI/ADR-RES ovarian): > 10 µM
TGI (HCT-116 colon): 5.67 µM
TGI (OVCAR-3 ovarian): > 5.55 µM
TGI (U251 CNS): > 10 µM
TGI (MOLT-4 leukemia): > 10 µM
TGI (LOX IMVI melanoma): > 10 µM
TGI (K-562 leukemia): > 7.45 µM
TGI (TK-10 renal): > 7.39 µM
TGI (MCF7 breast): > 10 µM
TGI (KM12 colon): > 10 µM
TGI (HT29 colon): > 10 µM
TGI (SW-620 colon): 3.55 µM
TGI (SF-539 CNS): > 10 µM
TGI (SF-295 CNS): > 10 µM
TGI (CAKI-1 renal): > 6.25 µM
TGI (786-0 renal): > 5.51 µM
TGI (HOP-62 NSCLC): > 10 µM
TGI (MDA-MB-435): > 10 µM
TGI (A549 NSCLC): > 10 µM
TGI (UO-31 renal): > 10 µM
TGI (ACHN renal): > 3.16 µM
TGI (COLO 205 colon): 4.2 µM
TGI (SN12C renal): > 10 µM
TGI (HOP-92 NSCLC): 6.37 µM
TGI (T-47D breast): 4.04 µM
TGI (NCI-H522 lung): 4.29 µM
TGI (DU-145 prostate): > 10 µM
TGI (MDA-N): > 9.4 µM
TGI (OVCAR-4 ovarian): 3.5 µM
TGI (MDA-MB-231 breast): > 10 µM
TGI (NCI-H460 lung): > 10 µM
TGI (UACC-257 melanoma): > 10 µM
TGI (SK-OV-3 ovarian): > 10 µM
TGI (CCRF-CEM leukemia): > 6.32 µM
TGI (OVCAR-5 ovarian): > 10 µM
TGI (BT-549 breast): 5.16 µM
TGI (RPMI-8226 leukemia): > 10 µM
TGI (SK-MEL-2 melanoma): > 10 µM
TGI (SNB-75 CNS): > 10 µM
TGI (HL-60(TB) leukemia): > 7.36 µM
TGI (SF-268 CNS): > 10 µM

CN(C)C(=S)SCC(N)=O
TGI (OVCAR-8 ovarian): > 100 µM
TGI (MALME-3M melanoma): > 100 µM
TGI (NCI-H23 lung): > 100 µM
TGI (A498 renal): > 100 µM
TGI (UACC-62 melanoma): > 100 µM
TGI (SR leukemia): > 100 µM
TGI (NCI-H226 lung): > 100 µM
TGI (HCT-15 colon): > 100 µM
TGI (SK-MEL-28 melanoma): > 100 µM
TGI (HCC-2998 colon): > 100 µM
TGI (IGROV1 ovarian): > 100 µM
TGI (SK-MEL-5 melanoma): > 100 µM
TGI (EKVX NSCLC): > 100 µM
TGI (M14 melanoma): > 100 µM
TGI (PC-3 prostate): > 100 µM
TGI (RXF 393 renal): > 100 µM
TGI (HS 578T breast): > 100 µM
TGI (SNB-19 CNS): > 100 µM
TGI (NCI/ADR-RES ovarian): > 100 µM
TGI (HCT-116 colon): > 100 µM
TGI (OVCAR-3 ovarian): > 100 µM
TGI (U251 CNS): > 100 µM
TGI (MOLT-4 leukemia): > 100 µM
TGI (LOX IMVI melanoma): > 100 µM
TGI (K-562 leukemia): > 100 µM
TGI (TK-10 renal): > 100 µM
TGI (MCF7 breast): > 100 µM
TGI (KM12 colon): > 100 µM
TGI (HT29 colon): > 100 µM
TGI (SW-620 colon): > 100 µM
TGI (SF-539 CNS): > 100 µM
TGI (SF-295 CNS): > 100 µM
TGI (CAKI-1 renal): > 100 µM
TGI (786-0 renal): > 100 µM
TGI (HOP-62 NSCLC): > 100 µM
TGI (MDA-MB-435): > 100 µM
TGI (A549 NSCLC): > 100 µM
TGI (ACHN renal): > 100 µM
TGI (COLO 205 colon): > 100 µM
TGI (SN12C renal): > 100 µM
TGI (HOP-92 NSCLC): > 100 µM
TGI (T-47D breast): > 100 µM
TGI (NCI-H522 lung): > 100 µM
TGI (DU-145 prostate): > 100 µM
TGI (MDA-N): > 100 µM
TGI (OVCAR-4 ovarian): > 100 µM
TGI (MDA-MB-231 breast): > 100 µM
TGI (NCI-H460 lung): > 100 µM
TGI (UACC-257 melanoma): > 100 µM
TGI (SK-OV-3 ovarian): > 100 µM
TGI (CCRF-CEM leukemia): > 100 µM
TGI (OVCAR-5 ovarian): > 100 µM
TGI (BT-549 breast): > 100 µM
TGI (RPMI-8226 leukemia): > 100 µM
TGI (SK-MEL-2 melanoma): > 100 µM
TGI (SNB-75 CNS): > 100 µM
TGI (HL-60(TB) leukemia): > 100 µM
TGI (SF-268 CNS): > 100 µM
